Legend:
[1] = molecular target: EGFR L858R (Homo sapiens (Human), UniProt P00533, L858R); assay: Biochemical EGFR inhibition assay, EGFR L858R; conditions: Caliper mobility shift; 1.0 mM ATP or ATP Km; read-out: Enz EGFR_L858R IC50
[2] = molecular target: EGFR (d746-750) (Homo sapiens (Human), UniProt P00533, DEL746-750); assay: Biochemical EGFR inhibition assay, EGFR (d746-750); conditions: Caliper mobility shift; 1.0 mM ATP or ATP Km; read-out: Enz EGFR_Exon19-del746-750 IC50
[3] = molecular target: pEGFR (Tyr1068) in PC-9 cells (Ex19Del) (Homo sapiens (Human), UniProt P00533, DEL746-750); assay: PC-9 pEGFR AlphaLISA assay; type: cell-based; conditions: 4 hours incubation, p-EGFR (Tyr1068) AlphaLISA, read-out: Ext pEGFR_PC-9 Ex19Del IC50
In short: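 Cells seeded in phenol-free DMEM with 10% FBS adhered overnight at 37° C./5% CO2, then were exposed for 4 hours to a 4-fold, 10-point compound dilution series. After lysis, phospho-EGFR was read by AlphaLISA SureFire Ultra, and IC50 was fitted from percent inhibition versus log concentration.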

Sequence of pEGFR (Tyr1068) in PC-9 cells (Ex19Del) (P00533 other isoform, or with tags, fused parts or gaps del 746-750): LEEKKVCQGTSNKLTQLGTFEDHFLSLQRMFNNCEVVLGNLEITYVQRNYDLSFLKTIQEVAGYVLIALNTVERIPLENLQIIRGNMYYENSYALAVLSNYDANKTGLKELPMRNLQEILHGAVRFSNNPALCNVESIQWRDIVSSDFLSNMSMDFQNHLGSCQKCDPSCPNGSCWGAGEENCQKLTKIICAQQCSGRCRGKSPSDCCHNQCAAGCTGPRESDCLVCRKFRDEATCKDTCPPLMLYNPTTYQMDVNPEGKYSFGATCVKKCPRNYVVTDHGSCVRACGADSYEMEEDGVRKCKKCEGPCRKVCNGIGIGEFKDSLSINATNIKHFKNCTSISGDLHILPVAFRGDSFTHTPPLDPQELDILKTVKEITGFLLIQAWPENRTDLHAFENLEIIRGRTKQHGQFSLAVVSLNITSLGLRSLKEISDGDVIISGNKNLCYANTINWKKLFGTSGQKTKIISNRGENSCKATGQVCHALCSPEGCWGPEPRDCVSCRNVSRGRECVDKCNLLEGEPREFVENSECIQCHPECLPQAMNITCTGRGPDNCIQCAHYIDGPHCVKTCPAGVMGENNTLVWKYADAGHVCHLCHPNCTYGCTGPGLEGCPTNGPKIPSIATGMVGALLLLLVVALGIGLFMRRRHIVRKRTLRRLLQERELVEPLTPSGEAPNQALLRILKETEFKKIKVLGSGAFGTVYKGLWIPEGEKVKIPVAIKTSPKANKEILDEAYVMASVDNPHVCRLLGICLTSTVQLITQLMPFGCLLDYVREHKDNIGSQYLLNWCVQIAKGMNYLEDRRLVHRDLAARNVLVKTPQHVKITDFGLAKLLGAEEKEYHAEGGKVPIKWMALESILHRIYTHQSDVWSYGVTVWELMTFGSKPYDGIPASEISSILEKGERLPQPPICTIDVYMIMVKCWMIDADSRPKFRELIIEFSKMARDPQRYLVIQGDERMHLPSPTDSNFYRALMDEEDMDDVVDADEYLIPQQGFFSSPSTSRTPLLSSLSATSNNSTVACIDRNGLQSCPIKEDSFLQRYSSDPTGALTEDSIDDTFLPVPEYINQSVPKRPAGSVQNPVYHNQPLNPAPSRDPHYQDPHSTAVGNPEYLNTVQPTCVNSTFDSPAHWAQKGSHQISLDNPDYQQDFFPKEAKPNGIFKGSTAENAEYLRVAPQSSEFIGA
Sequence of EGFR (d746-750) (P00533 other isoform, or with tags, fused parts or gaps del 1-694/del 746-750 limits assumed): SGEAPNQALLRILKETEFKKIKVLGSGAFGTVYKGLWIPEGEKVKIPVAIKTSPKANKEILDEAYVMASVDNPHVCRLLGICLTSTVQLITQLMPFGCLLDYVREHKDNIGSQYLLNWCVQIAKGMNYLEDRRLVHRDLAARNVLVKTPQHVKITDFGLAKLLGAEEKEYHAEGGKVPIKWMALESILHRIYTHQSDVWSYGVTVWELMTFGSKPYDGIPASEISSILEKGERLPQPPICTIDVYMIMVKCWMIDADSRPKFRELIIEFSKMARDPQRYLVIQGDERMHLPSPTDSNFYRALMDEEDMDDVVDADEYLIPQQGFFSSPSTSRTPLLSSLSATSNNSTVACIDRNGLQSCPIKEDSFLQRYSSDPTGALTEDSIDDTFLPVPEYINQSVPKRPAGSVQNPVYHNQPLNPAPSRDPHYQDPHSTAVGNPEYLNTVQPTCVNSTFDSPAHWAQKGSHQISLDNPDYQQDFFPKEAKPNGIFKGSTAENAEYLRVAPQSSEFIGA
Sequence of EGFR L858R (P00533 25-1210 L858R): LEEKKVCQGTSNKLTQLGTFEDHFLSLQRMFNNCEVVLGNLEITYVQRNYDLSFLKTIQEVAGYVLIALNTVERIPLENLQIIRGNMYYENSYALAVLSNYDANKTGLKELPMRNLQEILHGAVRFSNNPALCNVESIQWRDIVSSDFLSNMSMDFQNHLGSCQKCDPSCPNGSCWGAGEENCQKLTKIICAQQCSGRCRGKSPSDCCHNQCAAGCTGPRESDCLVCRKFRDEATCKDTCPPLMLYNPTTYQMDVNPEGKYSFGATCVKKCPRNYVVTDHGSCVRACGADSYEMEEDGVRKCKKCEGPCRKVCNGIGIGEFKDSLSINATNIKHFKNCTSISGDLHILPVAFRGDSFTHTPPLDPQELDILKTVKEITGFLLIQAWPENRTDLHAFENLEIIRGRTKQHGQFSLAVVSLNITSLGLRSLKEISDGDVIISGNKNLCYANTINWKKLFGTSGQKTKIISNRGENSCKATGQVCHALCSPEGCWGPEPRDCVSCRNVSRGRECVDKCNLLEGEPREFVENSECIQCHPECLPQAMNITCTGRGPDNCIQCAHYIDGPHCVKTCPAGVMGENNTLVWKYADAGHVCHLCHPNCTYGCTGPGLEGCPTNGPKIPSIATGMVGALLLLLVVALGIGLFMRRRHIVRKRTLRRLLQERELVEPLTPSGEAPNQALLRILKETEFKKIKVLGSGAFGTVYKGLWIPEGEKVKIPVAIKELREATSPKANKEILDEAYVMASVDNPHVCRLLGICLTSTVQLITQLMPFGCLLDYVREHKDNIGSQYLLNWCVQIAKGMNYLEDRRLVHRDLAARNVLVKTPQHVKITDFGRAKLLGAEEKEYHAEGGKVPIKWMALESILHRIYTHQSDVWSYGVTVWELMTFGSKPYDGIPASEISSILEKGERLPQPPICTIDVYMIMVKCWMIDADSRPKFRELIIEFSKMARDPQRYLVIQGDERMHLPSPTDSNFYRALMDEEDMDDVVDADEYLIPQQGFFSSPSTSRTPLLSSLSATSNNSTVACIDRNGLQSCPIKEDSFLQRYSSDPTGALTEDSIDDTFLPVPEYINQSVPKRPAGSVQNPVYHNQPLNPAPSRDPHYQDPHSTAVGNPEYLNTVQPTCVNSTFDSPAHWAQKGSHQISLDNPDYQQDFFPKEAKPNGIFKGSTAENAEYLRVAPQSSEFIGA

| Structure (SMILES) | IC50 [1] [nM] | IC50 [2] [nM] | IC50 [3] [nM] |
| --- | --- | --- | --- |
| COc1cc2ncnc(-c3cn(CC(F)F)nc3-c3ccccc3)c2cc1NC(=O)c1ccc(C2CC2)nc1 [Example 333, 6-cyclopropyl-N-(4-(1-(2,2-difluoroethyl)-3-phenyl-1H-pyrazol-4-yl)-7-methoxyquinazolin-6-yl) nicotinamide] | 1.3 | 0.8 | 1.7 |
| COc1cc2ncnc(-c3cn(C)nc3-c3ccccc3)c2cc1NC(=O)c1cnn(C)c1 [Example 294, N-(7-methoxy-4-(1-methyl-3-phenyl-1H-pyrazol-4-yl)quinazolin-6-yl)-1-methyl-1H-pyrazole-4-carboxamide] | 1 | 0.5 | 1.1 |
| COc1cc2ncnc(-c3cn(CC4CC4)nc3-c3ccccc3)c2nc1NC(=O)[C@@]12C[C@@H]1CN(C)C2 (single isomer, unassigned) [Example 408, (1R,5R)—N-(4-(1-(cyclopropylmethyl)-3-phenyl-1H-pyrazol-4-yl)-7-methoxypyrido[3,2-d]pyrimidin-6-yl)-3-methyl-3-azabicyclo[3.1.0]hexane-1-carboxamide or (1S,5S)—N-(4-(1-(cyclopropylmethyl)-3-phenyl-1H-pyrazol-4-yl)-7-methoxypyrido[3,2-d]pyrimidin-6-yl)-3-methyl-3-azabicyclo[3.1.0]hexane-1-carboxamide] | 1.5 | 0.7 | 0.7 |
| COc1cc2ncnc(-c3cn(C)nc3-c3ccccc3)c2nc1O[C@H](C)c1nnc(C)o1 [Example 38, (R)-2-(1-((7-methoxy-4-(1-methyl-3-phenyl-1H-pyrazol-4-yl)pyrido[3,2-d]pyrimidin-6-yl)oxy)ethyl)-5-methyl-1,3,4-oxadiazole] | 5.9 | 6.7 | 25.6 |
| COc1cc2ncnc(-c3cn(C)nc3-c3ccccc3)c2nc1NC(=O)[C@@]1(C(F)(F)F)CCCN1C (single isomer, unassigned) [Example 429, (R)—N-(7-methoxy-4-(1-methyl-3-phenyl-1H-pyrazol-4-yl)pyrido[3,2-d]pyrimidin-6-yl)-1-methyl-2-(trifluoromethyl) pyrrolidine-2-carboxamide or (S)—N-(7-methoxy-4-(1-methyl-3-phenyl-1H-pyrazol-4-yl)pyrido[3,2-d]pyrimidin-6-yl)-1-methyl-2-(trifluoromethyl) pyrrolidine-2-carboxamide] | 5.9 | 2.7 | 11.4 |
| COc1cc2ncnc(-c3cn(C)nc3-c3ccccc3)c2cc1NC(=O)c1ccnc(C)c1 [Example 194, N-(7-methoxy-4-(1-methyl-3-phenyl-1H-pyrazol-4-yl)quinazolin-6-yl)-2-methylisonicotinamide] | 1.4 | 0.7 | 1.7 |
| COc1cc2ncnc(-c3cn(C)nc3-c3ccccc3)c2cc1NC(=O)C1(C(F)(F)F)CC1 [Example 349, N-(7-methoxy-4-(1-methyl-3-phenyl-1H-pyrazol-4-yl)quinazolin-6-yl)-1-(trifluoromethyl)cyclopropane-1-carboxamide] | 2 | 1 | 3.5 |
| COc1cc2ncnc(-c3cn(CCO)nc3-c3ccccc3)c2cc1NC(=O)C12CC(C1)C2 [Example 265, N-(4-(1-(2-hydroxyethyl)-3-phenyl-1H-pyrazol-4-yl)-7-methoxyquinazolin-6-yl)bicyclo[1.1.1]pentane-1-carboxamide] | 3.2 | 1.8 | 2.3 |
| COCc1cc2c(-c3cn(C)nc3-c3ccccc3)ncnc2cc1OC [Example 120, 7-methoxy-6-(methoxymethyl)-4-(1-methyl-3-phenyl-1H-pyrazol-4-yl)quinazoline] | 2.9 | 0.8 | 7.3 |
| COc1cc2ncnc(-c3cn(C)nc3-c3ccccc3)c2cc1OC(=O)N1[C@@H](C)COC[C@@H]1C [Example 64, 7-methoxy-4-(1-methyl-3-phenyl-1H-pyrazol-4-yl)quinazolin-6-yl (3S,5S)-3,5-dimethylmorpholine-4-carboxylate] | 6.1 | 2.1 | 13.7 |

Source: patent publication US20250236608A1, “EGFR INHIBITORS” (Blueprint Medicines Corporation, priority 2022, published 2025)
